The target in series [1] is T1, Human H3 Receptor (Homo sapiens, UniProt Q9Y5N1).
T1 construct: expressed in transfected cells
Briefly: [3H]-N-Methylhistamine binding, membranes of H3 receptor-expressing SK-N-MC cells. Conditions: 0.8 nM [3H]-N-methylhistamine, 60 min at 25° C., average of results; read-out: Ki. On the procedure:
(§1) Cells were grown to about 70% to 80% confluence and removed from the plate with trypsin and pelleted in a clinical centrifuge. The pellet was then re-suspended in 400 μL of complete media and transferred to an electroporation cuvette with a 0.4 cm gap between the electrodes (Bio-Rad #165-2088). One μg supercoiled H3 receptor cDNA was added to the cells and mixed gently. The voltage for the electroporation was set at 0.25 kV and the capacitance was set at 960 μF. After electroporation the cells were diluted with 10 mL of complete media and were plated onto four 10 cm dishes at the following ratios: 1:20, 1:10, 1:5, and 1:2. The cells were allowed to recover for 24 h before adding 600 μg G-418. Colonies that survived selection were grown and tested. SK-N-MC cells were used because they give efficient coupling for inhibition of adenylate cyclase. The clones that gave the most robust inhibition of adenylate cyclase in response to histamine were used for further study.
Cell pellets from histamine H3 receptor-expressing SK-N-MC cells were homogenized in 50 mM TrisHCl/0.5 mM EDTA. Supernatants from an 800 g spin were collected and were recentrifuged at 30,000 g for 30 min. Pellets were re-homogenized in 50 mM Tris/5 mM EDTA (pH 7.4). Membranes were incubated with 0.8 nM [^3H]-N-methylhistamine plus/minus test compounds for 60 min at 25° C. and were harvested by rapid filtration over GF/C glass fiber filters (pretreated with 0.3% polyethylenimine) followed by four washes with buffer. Filters were added to 5 mL of scintillation cocktail, and the signal was then counted on a liquid scintillation counter.

Series [2] addresses T1, Human H3 Receptor. Put plainly: Cyclic AMP accumulation, SK-N-MC cells with reporter construct and human H3 receptor (pA2). Conditions: pA2, average of results. The class given is cell-based. As to the method: as §1, with “The pellet was then re-suspended in 400 μL of complete media and transferred to an electroporation cuvette with a 0.4 cm gap between the electrodes (Bio-Rad #165-2088).” left out, “The cells were allowed to recover for 24 h before adding 600 μg G-418.” left out
Sublines of SK-N-MC cells were created that expressed a reporter construct and the human H3 receptor.

The nature of series [3]: Pharmacokinetics and bioanalysis in the rat. Type of series: in vivo, male Sprague Dawley Rats. Conditions: for AUC(0-inf): read-out: AUCINF (h-μmol/mL). As to the method: One group of six male Sprague Dawley Rats (approx. 300 g body weight; three animals per time point) was used. They were group-housed, provided food and water ad libitum, and were maintained on a 12-h light and dark cycle. Animals were acclimatized for at least 7 days after receipt from the vendor prior to investigations.
For oral dosing, test compounds were formulated at 1 mg/mL in 0.5% hydroxypropyl methyl cellulose and delivered at a dose of 10 mg/kg. Citric acid salt forms (prepared as described for Example 1B) of the test compounds were used. Animals received a bolus dose of 10 mg/kg (10 mL/kg) for each compound via a 16 gauge intragastric gavage. For intravenous dosing, test compounds were formulated at 1 mg/mL in 5% dextrose in water and dosed at 1 mg/kg (1 mL/kg) with a bolus intravenous dose via a 24-gauge Terumo® Surflo® catheter in the lateral tail vein. All dosing solutions were prepared immediately prior to injection.
Blood samples (250 μL) were taken from the lateral tail vein into heparinized Natelson blood collection tubes and expelled into 1.5 mL mcirocentrifuge tubes. The blood samples were centrifuged for 5 min at 14,000 rpm in a micro-centrifuge. Plasma was retained and kept in a −20° C. freezer until analysis by LC-MS/MS.
Data analysis was performed using WinNonlin version 3.3 or 4.0.1. A non -compartmental model (#200 for Extravascular administration and #201 for i.v.) was used to determine the pharmacokinetic parameters shown in Tables 4 and 5 (NA=not applicable or not determined).

Series [4] in a line: Measured pKa, log P and log D (determined by pION, Inc.). The class given is physicochemical. The settings on record: for pKa: read-out: pKa (meas.). As to the method:
Measured pKa, log P, and log D values were determined by pION, Inc. (Woburn, Mass.).

Setting [5] is: compared with isopropyl / cyclobutyl analogs.
The mark [6] stands for this setting: male, Sprague Dawley, iv, i.v. 1 mg/kg, citric acid salt, plasma.
[7] abbreviates: male, Sprague Dawley, oral 10 mg/kg, citric acid salt, plasma.
The mark [8] stands for this setting: oral 10 mg/kg, citric acid salt.

“Also recorded” adds a separate entry of the source. Counter-ions that a name gives are not always drawn. Like-named read-outs stand apart in the source and are kept apart here.

A word on the Ki: it is a dissociation constant, usually derived from enzyme kinetics or from competition with a known ligand. A word on the Cmax: it is the highest concentration seen after dosing. By half-life is commonly meant how long it takes for the measured level to halve. Broadly, the Tmax is the time from dosing to the highest level. Broadly, the logD is lipophilicity at a set pH, counting ionised and neutral species. Usually logP stands for a log measure of how a compound divides between an organic and an aqueous phase. Read a low logP as a more hydrophilic compound. As usually defined, the pKa is the negative logarithm of the acid dissociation constant.

T1 sequence (Q9Y5N1 whole entry): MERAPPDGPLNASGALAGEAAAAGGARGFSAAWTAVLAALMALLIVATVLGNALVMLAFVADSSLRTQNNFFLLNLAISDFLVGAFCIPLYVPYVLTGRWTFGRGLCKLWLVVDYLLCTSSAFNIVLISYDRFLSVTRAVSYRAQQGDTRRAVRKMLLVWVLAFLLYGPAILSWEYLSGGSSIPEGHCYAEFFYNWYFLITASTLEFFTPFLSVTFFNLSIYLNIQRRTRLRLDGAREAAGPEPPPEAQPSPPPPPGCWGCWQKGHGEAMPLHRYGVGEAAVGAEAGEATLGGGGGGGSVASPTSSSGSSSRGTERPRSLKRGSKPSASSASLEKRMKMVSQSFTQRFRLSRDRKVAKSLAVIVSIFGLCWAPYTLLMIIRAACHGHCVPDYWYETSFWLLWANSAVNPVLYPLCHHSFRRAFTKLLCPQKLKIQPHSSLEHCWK

Consider `O=C(O)CC(O)(CC(=O)O)C(=O)O.O=C(c1ccc(CN2CCC(F)CC2)cc1)N1CCN(C2CC2)CC1` [Example 2B, (4-Cyclopropyl-piperazin-1-yl)-[4-(4-fluoro-piperidin-1-ylmethyl)-phenyl]-methanone citrate salt], for which the Ki in series [1] is 2 nM. For the same compound, the Kb in series [2] was 1 nM. In addition, in series [3] (setting [5]), the “half-life (T1/2) relative to the comparative examples” value is listed as “shorter T1/2” and the “volume of distribution (Vd) relative to the comparative examples” value is listed as “lower Vd”. Besides, in series [3] (i.v. 1 mg/kg, citric acid salt), the “CI” value was 41.4 mL/min/kg. Besides, in series [3] (setting [6]), the highest concentration (Cmax) came to 3780 nM, the half-life was 1.11 h and the AUC(0-inf) is 1.37 µM·h. In series [3] (setting [7]), the Cmax was 420 nM, the Tmax worked out at 1.67 h, the half-life is 2.72 h and the AUC(0-inf) was 1.91 µM·h. Besides, in series [3] (male, Sprague Dawley, plasma, iv, i.v. 1 mg/kg, citric acid salt, read-out: Vd), the Vd was found to be 3.94 L/kg. Moreover, in series [3] (setting [8]), the “CI” value is recorded as 431 mL/min/kg and the “Vd” value turned out to be 112 L/kg.

For the compound `CC(C)N1CCN(C(=O)c2ccc(CN3CCOCC3)cc2)CC1` [Comparative Example 1A, (4-Isopropyl-piperazin-1-yl)-(4-morpholin-4-ylmethyl-phenyl) -methanone dihydrochloride], the Kb in series [2] was 1.26 nM.

Consider `CC(C)N1CCN(C(=O)c2ccc(CN3CCOC(CO)C3)cc2)CC1` (centres unmarked) [Comparative Example 6, [4-(2-Hydroxymethyl-morpholin-4-ylmethyl)-phenyl]-(4-isopropyl-piperazin-1-yl)-methanone], for which, in series [1], the Ki is 6 nM. The Kb in series [2] is 6.31 nM.

For `CC(C)N1CCN(C(=O)c2ccc(CN3CCC(F)CC3)cc2)CC1.O=C(O)CC(O)(CC(=O)O)C(=O)O` [Comparative Example 3B, [4-(4-Fluoro-piperidin-1-ylmethyl)-phenyl]-(4-isopropyl-piperazin-1-yl)-methanone citrate salt], in series [1], the Ki was 1 nM. In series [2], this compound showed a Kb of 0.251 nM. In series [3] (i.v. 1 mg/kg, citric acid salt), the “CI” value worked out at 44.2 mL/min/kg and the “Vd” value was determined as 29.2 L/kg. Besides, in series [3] (i.v. 1 mg/kg, citric acid salt, plasma), the “T1/2” value is reported as 7.60 h. Also, in series [3] (setting [6]), the maximum concentration (Cmax) turned out to be 1490 nM and the AUC(0-inf) came to 1.16 µM·h. For the same compound, in series [3] (setting [7]), the Cmax was determined as 160 nM, the Tmax amounted to 1.33 h, the half-life was 8.22 h and the AUC(0-inf) worked out at 1.95 µM·h. In series [3] (setting [8]), the “CI” value amounted to 270 mL/min/kg and the “Vd” value is on record as 180 L/kg.

Regarding `O=C(c1ccc(CN2CCOCC2)cc1)N1CCN(C2CC2)CC1` [Example 1, (4-Cyclopropyl-piperazin-1-yl)-(4-morpholin-4-ylmethyl-phenyl) -methanone], in series [4], the logD stood at 0.86; the logP worked out at 0.89; the “measured pKa (basicity) relative to calculated value and to isopropyl / cyclobutyl amine analogs” value is reported as “significantly lower; also recorded: significant decrease in basicity”; the pKa was 6.5. The pKa in series [4] (second value) is 5.3. Also, the inhibition constant (Ki) in series [1] is 5.4 nM. Besides, in series [2], the Kb was 3.98 nM.

`O=C(c1ccc(CN2CCC(F)CC2)cc1)N1CCN(C2CCC2)CC1` [Comparative Example 4, (4-Cyclobutyl-piperazin-1-yl)-[4-(4-fluoro-piperidin-1-ylmethyl)-phenyl]-methanone]: in series [1], the Ki is 0.7 nM. Moreover, the Kb in series [2] stood at 0.1 nM.

As to `O=C(c1ccc(CN2CCOCC2)cc1)N1CCN(C2CCC2)CC1` [Comparative Example 2, (4-Cyclobutyl-piperazin-1-yl)-(4-morpholin-4-ylmethyl-phenyl) -methanone], in series [4], the logD came to 1.77, the logP was 2.09 and the pKa amounted to 7.4. In series [4] (second value), the pKa came to 6.5. For the same compound, the Ki in series [1] came to 1 nM. Moreover, the Kb in series [2] is 0.316 nM.

Compound `CC(C)N1CCN(C(=O)c2ccc(CN3CCOCC3)cc2)CC1` [Comparative Example 1, (4-Isopropyl-piperazin-1-yl)-(4-morpholin-4-ylmethyl-phenyl) -methanone] showed a Kb in series [2] of 1 nM.

The values are drawn from US7910582B2, “Cyclopropyl amines as modulators of the histamine H3 receptor” (Janssen Pharmaceutica NV, priority 2005, dated 2011).
